# Measurements from patent US12310364B2, “Safened compositions comprising pyridine carboxylate herbicides and cloquintocet” (Corteva Agriscience LLC, priority 2018, dated 2025).
# Tested on: Matricaria chamomilla (wild chamomile), MATCH
# Test: Greenhouse postemergence trial, visual injury on wild chamomile
# Format: in vivo
# Settings: herbicide alone 20 g/ha
# Description: Greenhouse Trial Methodology-Evaluation of Postemergence Herbicidal […] in Crops […] When required to ensure good germination and healthy plants, a fungicide treatment and/or other chemical or physical treatment was applied. The plants were grown for 7-36 days (d) in a greenhouse with an approximate 14-hour (h) photoperiod which was maintained at about 23° C. during the day and 22° C. during the night. Nutrients and water were added on a regular basis and supplemental lighting was provided with overhead metal halide 1000-Watt lamps as necessary. The plants were employed for testing when they reached the second or third true leaf stage. Emulsifiable concentrates of each of each pyridine carboxylate herbicide (Compound A or Compound B) were prepared at 100 grams acid equivalent per liter (g ae/L). […] The concentrated stock solutions were further diluted with an aqueous mixture of 1.25% […] or MSO® Concentrate with LECI-TECH® to obtain stock solutions at reduced application rates for each herbicide. Spray solutions of the herbicide combinations (Compound A or Compound B plus safener) were prepared by adding weighed amounts or aliquots of the safener to the stock solutions of Compound A or Compound B to form 12-mL spray solutions in two-way combinations. […] Control plants were sprayed in the same manner with the solvent blank. All herbicide (component a) application rates are given as “g ae/ha” and all safener (component b) application rates are given as “g ai/ha.” The treated plants and control plants were placed in a greenhouse as described above and watered by sub-irrigation to prevent wash-off of the test compounds.
smiles,measurement,value
"N#CCOC(=O)c1nc(-c2ccc3cc[nH]c3c2F)c(F)c(N)c1Cl [Compound A, cyanomethyl 4-amino-3-chloro-5-fluoro-6-(7-fluoro-1H-indol-6-yl)pyridine-2-carboxylate]","% visual injury, Ob",50%
